In patent publication US6358885B1, “Substituted phenylheterocyclic herbicides” (Mississippi State University, priority 1992, dated 2002):

What was measured:
wild oat = assay: Test B preemergence/postemergence greenhouse plant response rating 0 to 10; assay type: in vivo, Avena fatua; settings: 0 to 10 scale
Outline: (§1)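 Both application timings were run together: seeds got compound preemergence, and established seedlings (two to eighteen cm) got it postemergence. Non-phytotoxic solvent carried the chemical. Ratings are visual, versus controls, at twelve to sixteen days.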

sorghum = assay: as above; assay type: in vivo, Sorghum bicolor; settings: 0 to 10 scale
Outline: as §1

ryegrass = assay: Test C preemergence/postemergence greenhouse plant response rating 0 to 100; assay type: in vivo, Lolium multiflorum; settings: POSTEMERGENCE
Outline: (§2)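 Compounds in non-phytotoxic solvent went onto sandy loam before emergence (seeded one day earlier) or onto plants at the one-to-four leaf stage. Duck salad was treated via flood water (~2.5 cm, maintained) over silt loam.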

wild buckwheat [1] = assay: Test B preemergence/postemergence greenhouse plant response rating 0 to 10; assay type: in vivo, Polygonum convolvulus; settings: 0 to 10 scale
Outline: as §1

cheatgrass = assay: as above; assay type: in vivo, Bromus secalinus; settings: 0 to 10 scale
Outline: as §1

downy brome = assay: Test C preemergence/postemergence greenhouse plant response rating 0 to 100; assay type: in vivo, Bromus tectorum; settings: POSTEMERGENCE
Outline: as §2

soybean = assay: as above; assay type: in vivo, Glycine max; settings: POSTEMERGENCE
Outline: as §2

velvetleaf = assay: as above; assay type: in vivo, Abutilon theophrasti; settings: POSTEMERGENCE
Outline: as §2

giant foxtail = assay: Test B preemergence/postemergence greenhouse plant response rating 0 to 10; assay type: in vivo, Setaria faberii; settings: 0 to 10 scale
Outline: as §1

wild buckwheat [2] = assay: Test C preemergence/postemergence greenhouse plant response rating 0 to 100; assay type: in vivo, Polygonum convolvulus; settings: POSTEMERGENCE
Outline: as §2

lambsquarters = assay: as above; assay type: in vivo, Chenopodium album; settings: POSTEMERGENCE
Outline: as §2

duck salad = assay: Test C flood test plant response rating 0 to 100; assay type: in vivo, Heteranthera limosa
Outline: as §2

barley = assay: Test C preemergence/postemergence greenhouse plant response rating 0 to 100; assay type: in vivo, Hordeum vulgare; settings: POSTEMERGENCE
Outline: as §2

sugar beet = assay: as above; assay type: in vivo, Beta vulgaris; settings: POSTEMERGENCE
Outline: as §2

cotton = assay: as above; assay type: in vivo, Gossypium hirsutum; settings: POSTEMERGENCE
Outline: as §2

chickweed [3] = assay: Test B preemergence/postemergence greenhouse plant response rating 0 to 10; assay type: in vivo, Stellaria media; settings: POSTEMERGENCE, 0 to 10 scale
Outline: as §1

corn = assay: as above; assay type: in vivo, Zea mays; settings: 0 to 10 scale
Outline: as §1

chickweed [4] = assay: Test C preemergence/postemergence greenhouse plant response rating 0 to 100; assay type: in vivo, Stellaria media; settings: POSTEMERGENCE
Outline: as §2

C#CCN1C(=O)COc2cc(F)c(-c3nn4c(c3Cl)CCCC4)cc21 [Compound 34]
30: Plant response rating Ryegrass (ryegrass; 62 g/ha, 0 to 100 scale) | Plant response rating (0 to 100), Ryegrass (ryegrass; Rate 16 g/ha) | Plant response rating (0 to 100), Downy Brome (downy brome; Rate 4 g/ha) | Plant response rating (0 to 100), Barley Igri (barley; Rate 4 g/ha)
5: Plant response rating, Wild oat (wild oat; POSTEMERGENCE, Rate 10 g/ha) | Plant response rating, Wild oat (wild oat; POSTEMERGENCE, Rate 50 g/ha) | Plant response rating, Cheatgrass (cheatgrass; POSTEMERGENCE, Rate 50 g/ha) | Plant response rating, Giant foxtail (giant foxtail; POSTEMERGENCE, Rate 50 g/ha)
8: Plant response rating, Wild buckwheat (wild buckwheat [1]; PREEMERGENCE, Rate 50 g/ha)
100: Plant response rating, Soybean (soybean; 62 g/ha, 0 to 100 scale) | Plant response rating (0 to 100), Soybean (soybean; Rate 16 g/ha) | Plant response rating, Velvetleaf (velvetleaf; 62 g/ha, 0 to 100 scale) | Plant response rating (0 to 100), Velvetleaf (velvetleaf; Rate 1 g/ha) | Plant response rating (0 to 100), Velvetleaf (velvetleaf; Rate 4 g/ha) | Plant response rating (0 to 100), Velvetleaf (velvetleaf; Rate 16 g/ha) | Plant response rating, Wild buckwheat (wild buckwheat [2]; 62 g/ha, 0 to 100 scale) | Plant response rating (0 to 100), Wild buckwheat (wild buckwheat [2]; Rate 16 g/ha) | Plant response rating Lambsquarters (lambsquarters; 62 g/ha, 0 to 100 scale) | Plant response rating (0 to 100), Lambsquarters (lambsquarters; Rate 4 g/ha) | Plant response rating (0 to 100), Lambsquarters (lambsquarters; Rate 16 g/ha) | Plant response rating, Sugar beet (sugar beet; 62 g/ha, 0 to 100 scale) | Plant response rating (0 to 100), Sugar beet (sugar beet; Rate 16 g/ha) | Plant response rating, Cotton (cotton; 62 g/ha, 0 to 100 scale) | Plant response rating (0 to 100), Cotton (cotton; Rate 1 g/ha) | Plant response rating (0 to 100), Cotton (cotton; Rate 4 g/ha) | Plant response rating (0 to 100), Cotton (cotton; Rate 16 g/ha) | Plant response rating, Chickweed (chickweed [4]; 62 g/ha, 0 to 100 scale) | Plant response rating (0 to 100), Chickweed (chickweed [4]; Rate 16 g/ha)
3: Plant response rating, Cheatgrass (cheatgrass; PREEMERGENCE, Rate 10 g/ha) | Plant response rating, Giant foxtail (giant foxtail; PREEMERGENCE, Rate 10 g/ha)
20: Plant response rating (0 to 100), Ryegrass (ryegrass; Rate 4 g/ha) | Plant response rating (0 to 100), Downy Brome (downy brome; Rate 1 g/ha) | Plant response rating (0 to 100), Barley Igri (barley; Rate 1 g/ha)
4: Plant response rating, Sorghum (sorghum; POSTEMERGENCE, Rate 10 g/ha) | Plant response rating, Cheatgrass (cheatgrass; POSTEMERGENCE, Rate 10 g/ha) | Plant response rating, Giant foxtail (giant foxtail; POSTEMERGENCE, Rate 10 g/ha) | Plant response rating, Corn (corn; POSTEMERGENCE, Rate 10 g/ha) | Plant response rating, Corn (corn; POSTEMERGENCE, Rate 50 g/ha)
0: Plant response rating (0 to 100), Duck salad (duck salad; POSTEMERGENCE section, flood test, Rate 1 g/ha) | Plant response rating (0 to 100), Duck salad (duck salad; POSTEMERGENCE section, flood test, Rate 4 g/ha) | Plant response rating (0 to 100), Duck salad (duck salad; Rate 16 g/ha, under POSTEMERGENCE head (flood test species)) | Plant response rating, Corn (corn; PREEMERGENCE, Rate 50 g/ha)
40: Plant response rating (0 to 100), Downy Brome (downy brome; Rate 16 g/ha) | Plant response rating Duck salad (duck salad; flood test species listed under POSTEMERGENCE, 62 g/ha, 0 to 100 scale) | Plant response rating Barley Igri (barley; 62 g/ha, 0 to 100 scale) | Plant response rating (0 to 100), Barley Igri (barley; Rate 16 g/ha)
7: Plant response rating, Wild oat (wild oat; PREEMERGENCE, Rate 50 g/ha)
50: Plant response rating Downy Brome (downy brome; 62 g/ha, 0 to 100 scale) | Plant response rating (0 to 100), Soybean (soybean; Rate 1 g/ha) | Plant response rating (0 to 100), Wild buckwheat (wild buckwheat [2]; Rate 4 g/ha)
70: Plant response rating (0 to 100), Soybean (soybean; Rate 4 g/ha)
6: Plant response rating, Sorghum (sorghum; POSTEMERGENCE, Rate 50 g/ha) | Plant response rating, Cheatgrass (cheatgrass; PREEMERGENCE, Rate 50 g/ha) | Plant response rating, Giant foxtail (giant foxtail; PREEMERGENCE, Rate 50 g/ha)
75: Plant response rating (0 to 100), Chickweed (chickweed [4]; Rate 1 g/ha) | Plant response rating (0 to 100), Chickweed (chickweed [4]; Rate 4 g/ha)
2: Plant response rating, Sorghum (sorghum; PREEMERGENCE, Rate 50 g/ha)
80: Plant response rating (0 to 100), Lambsquarters (lambsquarters; Rate 1 g/ha) | Plant response rating (0 to 100), Sugar beet (sugar beet; Rate 4 g/ha)
10: Plant response rating (0 to 100), Ryegrass (ryegrass; Rate 1 g/ha) | Plant response rating, Wild buckwheat (wild buckwheat [1]; POSTEMERGENCE, Rate 10 g/ha) | Plant response rating, Wild buckwheat (wild buckwheat [1]; POSTEMERGENCE, Rate 50 g/ha) | Plant response rating, Chickweed (chickweed [3]; Rate 10 g/ha) | Plant response rating, Chickweed (chickweed [3]; Rate 50 g/ha)
